Experimental data: patent US11932628B2, “Selective small molecule peptidomimetic melanocortin ligands” (REGENTS OF THE UNIVERSITY OF MINNESOTA, priority 2021, dated 2024)
Like-named read-outs stand apart in the source and are kept apart here.

Columns and labels:
mMC3R = mMC3R (Mus musculus, UniProt P33033); experiment: cAMP based functional bioassay (CRE/β-galactosidase reporter), agonist activity at mMC3R; conditions: for mMC3R Activity @ 10 μM (class) / mMC3R Activity @ 10 μM (relative activity, percent): reported where receptor not activated to full activity
Description: (§1) The compounds were evaluated using a whole cell assay.
(§2) Compounds were dissolved in DMSO at a stock concentration of 10^−2 M and stored at −20° C. until assayed. HEK-293 cells stably expressing the selected melanocortin receptors were transiently transfected with 4 μg of CRE/β-galactosidase reporter gene. Briefly, 5000-15000 post transfection cells were plated into collagen treated 96-well plates (Nunc) and incubated overnight. […] The assay media was aspirated, and 50 μL of lysis buffer (250 mM Tris-HCl pH=8.0 and 0.1% Triton X-100) was added. The plates were stored at −80° C. overnight. The plates containing the cell lysates were thawed the following day. Aliquots of 10 μL were taken from each well and transferred to another 96-well plate for relative protein determination. To the cell lysate plates, 40 μL of phosphate-buffered saline with 0.5% BSA was added to each well. Subsequently, 150 μL of substrate buffer (60 mM sodium phosphate, 1 mM MgCl2, 10 mM KCl, 5 mM β-mercaptoethanol, 2 mg/mL ONPG) was added to each well and the plates were incubated at 37° C. The sample absorbance, OD405, was measured using a 96-well plate reader (Molecular Devices). The relative protein was determined by adding 200 μL of 1:5 dilution BioRad G250 protein dye:water to the 10 μL of cell lysate sample taken previously, and the OD595 was measured on a 96-well plate reader (Molecular Devices). Data points were normalized to forskolin and the relative protein content were used as positive controls. The EC50 values represent the mean of three or more independent experiments. The EC50 estimates, and their associated standard errors of the mean, were determined by fitting the data to a nonlinear least-squares analysis using the PRISM program (v4.0, GraphPad Inc.).
(§3) The results are tabulated in the form of EC50 values. In the case where the particular receptor was not activated to full activity at 100,000 nM, then the relative activity was reported.

mMC5R = mMC5R (Mus musculus, UniProt P41149); experiment: cAMP based functional bioassay (CRE/β-galactosidase reporter), agonist activity at mMC5R; conditions: for mMC5R Activity @ 10 μM (class) / mMC5R Activity @ 10 μM (relative activity, percent): reported where receptor not activated to full activity
Description: as §1, §2, §3

mMC1R = mMC1R (Mus musculus, UniProt Q01727); experiment: cAMP based functional bioassay (CRE/β-galactosidase reporter), agonist activity at mMC1R; conditions: for mMC1R Activity @ 10 μM (class) / mMC1R Activity @ 10 μM (relative activity, percent): reported where receptor not activated to full activity
Description: as §1, §2, §3

mMC4R = mMC4R (Mus musculus, UniProt P56450); experiment: cAMP based functional bioassay (CRE/β-galactosidase reporter), agonist activity at mMC4R; conditions: for mMC4R Activity @ 10 μM (class) / mMC4R Activity @ 10 μM (relative activity, percent): reported where receptor not activated to full activity
mMC4R, sequence (P56450 whole entry): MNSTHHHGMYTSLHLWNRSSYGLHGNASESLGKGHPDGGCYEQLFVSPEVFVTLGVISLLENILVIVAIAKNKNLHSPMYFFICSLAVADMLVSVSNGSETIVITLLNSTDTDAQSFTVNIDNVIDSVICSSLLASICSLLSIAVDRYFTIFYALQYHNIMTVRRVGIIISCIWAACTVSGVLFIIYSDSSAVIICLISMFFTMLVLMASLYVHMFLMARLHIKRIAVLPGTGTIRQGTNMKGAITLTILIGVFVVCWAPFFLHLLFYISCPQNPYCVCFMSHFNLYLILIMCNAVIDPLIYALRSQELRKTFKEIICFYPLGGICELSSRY
Description: as §1, §2, §3

mMC5R, sequence (P41149 whole entry): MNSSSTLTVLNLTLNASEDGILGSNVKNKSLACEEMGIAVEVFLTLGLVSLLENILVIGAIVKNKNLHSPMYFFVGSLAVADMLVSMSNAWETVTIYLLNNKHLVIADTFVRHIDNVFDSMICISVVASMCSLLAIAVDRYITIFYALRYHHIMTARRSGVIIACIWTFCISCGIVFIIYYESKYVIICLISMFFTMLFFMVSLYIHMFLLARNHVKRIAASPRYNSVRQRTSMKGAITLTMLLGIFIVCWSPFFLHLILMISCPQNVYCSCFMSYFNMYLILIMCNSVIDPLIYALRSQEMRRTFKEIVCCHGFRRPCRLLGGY
mMC1R, sequence (Q01727 whole entry): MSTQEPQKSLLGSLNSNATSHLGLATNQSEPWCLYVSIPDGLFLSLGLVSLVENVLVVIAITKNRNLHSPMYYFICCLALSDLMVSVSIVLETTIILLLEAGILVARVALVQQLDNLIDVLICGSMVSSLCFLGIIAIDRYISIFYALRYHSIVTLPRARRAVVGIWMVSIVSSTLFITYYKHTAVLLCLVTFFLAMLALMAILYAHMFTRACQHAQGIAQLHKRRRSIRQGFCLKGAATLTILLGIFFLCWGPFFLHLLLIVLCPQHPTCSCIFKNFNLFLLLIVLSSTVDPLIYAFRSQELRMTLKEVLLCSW
mMC3R, sequence (P33033 whole entry): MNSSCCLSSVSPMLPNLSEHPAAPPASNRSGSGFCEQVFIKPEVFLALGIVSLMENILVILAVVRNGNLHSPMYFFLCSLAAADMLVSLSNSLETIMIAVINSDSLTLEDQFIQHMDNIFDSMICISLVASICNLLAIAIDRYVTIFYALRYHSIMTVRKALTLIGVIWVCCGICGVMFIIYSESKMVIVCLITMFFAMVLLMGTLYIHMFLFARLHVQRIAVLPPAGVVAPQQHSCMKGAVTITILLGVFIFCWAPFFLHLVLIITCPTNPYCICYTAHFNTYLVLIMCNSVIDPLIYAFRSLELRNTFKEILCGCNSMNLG

Compound	mMC3R Activity @ 10 μM (class) (mMC3R)	mMC3R Activity @ 10 μM (relative activity, percent) (mMC3R) [%]	EC50 (mMC5R) [nM]	EC50 (mMC1R) [µM]	mMC4R Activity @ 10 μM (class) (mMC4R)	also measured
CC(C)C[C@@H]1CNC(=N)N1C[C@@H]1CCCN1C[C@@H](CC1CCCCC1)N1C[C@@H](C(C)C)N(CC2CCC(C(C)(C)C)CC2)C1=N (stereo partly drawn) [TPI 2509-11, (R)-3-((4-(tert-butyl)cyclohexyl)methyl)-1-((R)-1-cyclohexyl-3-((S)-2-(((R)-2-imino-5-isobutylimidazolidin-1-yl)methyl)pyrrolidin-1-yl)propan-2-yl)-4-isopropylimidazolidin-2-imine]	B (B: >51%)	69	560 ± 50			mMC1R Activity @ 10 μM (class) (mMC1R): B (B: >51%); mMC1R Activity @ 10 μM (relative activity, percent) (mMC1R): 54%
CC(C)C[C@@H]1CNC(=N)N1C[C@@H]1CCCN1C[C@@H](Cc1ccccc1)N1C[C@@H](C(C)C)N(CC23CC4CC(CC(C4)C2)C3)C1=N [TPI 2509-19, (R)-3-(adamantan-1-ylmethyl)-1-((R)-1-((S)-2-(((R)-2-imino-5-isobutylimidazolidin-1-yl)methyl)pyrrolidin-1-yl)-3-phenylpropan-2-yl)-4-isopropylimidazolidin-2-imine]	B (B: >51%)	67	440 ± 110	15.5 ± 14		EC50 (mMC4R): 8200 ± 3550 nM
CC(C)[C@@H]1CNC(=N)N1C[C@@H]1CCCN1C[C@@H](CC1CCCCC1)N1C[C@@H](C(C)C)N(CC23CC4CC(CC(C4)C2)C3)C1=N [TPI 2509-28, (R)-3-(adamantan-1-ylmethyl)-1-((R)-1-cyclohexyl-3-((S)-2-(((R)-2-imino-5-isopropylimidazolidin-1-yl)methyl)pyrrolidin-1-yl)propan-2-yl)-4-isopropylimidazolidin-2-imine]			580 ± 160	0.3 ± 0.03	A (A: <50%)	EC50 (mMC3R): 3.7 ± 0.88 µM; mMC4R Activity @ 10 μM (relative activity, percent) (mMC4R): 40%
CC(C)CCCN1C(=N)N([C@H](Cc2ccccc2)CN2CCC[C@H]2CN2C(=N)NC[C@H]2CC(C)C)C[C@H]1C(C)C [TPI 2509-21, (R)-1-((R)-1-((S)-2-(((R)-2-imino-5-isobutylimidazolidin-1-yl)methyl)pyrrolidin-1-yl)-3-phenylpropan-2-yl)-4-isopropyl-3-(4-methylpentyl)imidazolidin-2-imine]	A (A: <50%)		1260 ± 130		A (A: <50%)	
CCC[C@@H]1CN([C@H](Cc2ccccc2)CN2CCC[C@H]2CN2C(=N)NC[C@H]2C(C)C)C(=N)N1CC12CC3CC(CC(C3)C1)C2 [TPI 2509-34, (R)-3-(adamantan-1-ylmethyl)-1-((R)-1-((S)-2-(((R)-2-imino-5-isopropylimidazolidin-1-yl)methyl)pyrrolidin-1-yl)-3-phenylpropan-2-yl)-4-propylimidazolidin-2-imine]			6600 ± 5740	6.7 ± 4.7		EC50 (mMC3R): 2 ± 0.85 µM; EC50 (mMC4R): 1400 ± 760 nM
CCC[C@@H]1CN([C@H](Cc2ccccc2)CN2CCC[C@H]2CN2C(=N)NC[C@H]2CC(C)C)C(=N)N1CC1CCC(C(C)(C)C)CC1 (stereo partly drawn) [TPI 2509-17]	B (B: >51%)	83	480 ± 170		A (A: <50%)	mMC4R Activity @ 10 μM (relative activity, percent) (mMC4R): 28%; mMC1R Activity @ 10 μM (class) (mMC1R): A (A: <50%); mMC1R Activity @ 10 μM (relative activity, percent) (mMC1R): 38%
CC(C)[C@@H]1CNC(=N)N1C[C@@H]1CCCN1C[C@@H](Cc1ccccc1)N1C[C@@H](C(C)C)N(CC2CCC(C(C)(C)C)CC2)C1=N (stereo partly drawn) [TPI 2509-38, (R)-3-((4-(tert-butyl)cyclohexyl)methyl)-1-((R)-1-((S)-2-(((R)-2-imino-5-isopropylimidazolidin-1-yl)methyl)pyrrolidin-1-yl)-3-phenylpropan-2-yl)-4-isopropylimidazolidin-2-imine]	B (B: >51%)	68	600 ± 170	29.1 ± 20		
CC(=O)N[C@@H](Cc1c[nH]cn1)C(=O)N[C@H](Cc1ccccc1)C(=O)N[C@@H](CCCNC(=N)N)C(=O)N[C@@H](Cc1c[nH]c2ccccc12)C(N)=O [Ac-His-DPhe-Arg-Trp-NH2, reference compound]						EC50 (mMC4R; read-out: mMC4R Mean ± SEM (agonist EC50), HEK-293 cells, mean of three or more experiments): 5.5 ± 0.8 nM; EC50 (mMC5R; read-out: mMC5R Mean ± SEM (agonist EC50), HEK-293 cells, mean of three or more experiments): 4.2 ± 1 nM
CCC[C@@H]1CN([C@H](CC2CCCCC2)CN2CCC[C@H]2CN2C(=N)NC[C@H]2C(C)C)C(=N)N1CC12CC3CC(CC(C3)C1)C2 [TPI 2509-25, (R)-3-(adamantan-1-ylmethyl)-1-((R)-1-cyclohexyl-3-((S)-2-(((R)-2-imino-5-isopropylimidazolidin-1-yl)methyl)pyrrolidin-1-yl)propan-2-yl)-4-propylimidazolidin-2-imine]			590 ± 180	0.55	A (A: <50%)	EC50 (mMC3R): 2.8 ± 1.8 µM; mMC4R Activity @ 10 μM (relative activity, percent) (mMC4R): 45%
CC(C)C[C@@H]1CNC(=N)N1C[C@@H]1CCCN1C[C@@H](Cc1ccccc1)N1C[C@@H](C(C)C)N(CC2CCC(C(C)(C)C)CC2)C1=N (stereo partly drawn) [TPI 2509-20, (R)-3-((4-(tert-butyl)cyclohexyl)methyl)-1-((R)-1-((S)-2-(((R)-2-imino-5-isobutylimidazolidin-1-yl)methyl)pyrrolidin-1-yl)-3-phenylpropan-2-yl)-4-isopropylimidazolidin-2-imine]	B (B: >51%)	62	560 ± 170	6.8 ± 0.6		
CCC[C@@H]1CN([C@H](Cc2ccccc2)CN2CCC[C@H]2CN2C(=N)NC[C@H]2CC(C)C)C(=N)N1CC12CC3CC(CC(C3)C1)C2 [TPI 2509-16, (R)-3-(adamantan-1-ylmethyl)-1-((R)-1-((S)-2-(((R)-2-imino-5-isobutylimidazolidin-1-yl)methyl)pyrrolidin-1-yl)-3-phenylpropan-2-yl)-4-propylimidazolidin-2-imine]	B (B: >51%)	74	610 ± 160	7 ± 6.1		EC50 (mMC4R): 1330 ± 510 nM
CC(C)CCCN1C(=N)N([C@H](CC2CCCCC2)CN2CCC[C@H]2CN2C(=N)NC[C@H]2CC(C)C)C[C@H]1C(C)C [TPI 2509-12]	A (A: <50%)	33	1850 ± 800		B (B: >51%)	mMC1R Activity @ 10 μM (class) (mMC1R): B (B: >51%); mMC1R Activity @ 10 μM (relative activity, percent) (mMC1R): 50%
CCC[C@@H]1CN([C@H](Cc2ccccc2)CN2CCC[C@H]2CN2C(=N)NC[C@H]2C(C)C)C(=N)N1CCCC(C)C [TPI 2509-36, (R)-1-((R)-1-((S)-2-(((R)-2-imino-5-isopropylimidazolidin-1-yl)methyl)pyrrolidin-1-yl)-3-phenylpropan-2-yl)-3-(4-methylpentyl)-4-propylimidazolidin-2-imine]			2030 ± 980	22.9 ± 10	A (A: <50%)	mMC4R Activity @ 10 μM (relative activity, percent) (mMC4R): 41%
CC(C)CCCN1C(=N)N([C@H](Cc2ccccc2)CN2CCC[C@H]2CN2C(=N)NC[C@H]2CC(C)C)C[C@H]1[C@@H](C)O [TPI 2509-15, (R)-1-((S)-2-imino-1-((R)-1-((S)-2-(((R)-2-imino-5-isobutylimidazolidin-1-yl)methyl)pyrrolidin-1-yl)-3-phenylpropan-2-yl)-3-(4-methylpentyl)imidazolidin-4-yl)ethanol]						mMC5R Activity @ 10 μM (class) (mMC5R): B (B: >51%); mMC5R Activity @ 10 μM (relative activity, percent) (mMC5R): 77%; mMC1R Activity @ 10 μM (class) (mMC1R): B (B: >51%); mMC1R Activity @ 10 μM (relative activity, percent) (mMC1R): 62%
CC(C)CCCN1C(=N)N([C@H](Cc2ccccc2)CN2CCC[C@H]2CN2C(=N)NC[C@H]2C(C)C)C[C@H]1[C@@H](C)O [TPI 2509-33, (R)-1-((S)-2-imino-1-((R)-1-((S)-2-(((R)-2-imino-5-isopropylimidazolidin-1-yl)methyl)pyrrolidin-1-yl)-3-phenylpropan-2-yl)-3-(4-methylpentyl)imidazolidin-4-yl)ethanol]						mMC5R Activity @ 10 μM (class) (mMC5R): A (A: <50%); mMC5R Activity @ 10 μM (relative activity, percent) (mMC5R): 40%; mMC1R Activity @ 10 μM (class) (mMC1R): B (B: >51%)
CC(C)CCCN1C(=N)N([C@H](Cc2ccccc2)CN2CCC[C@H]2CN2C(=N)NC[C@H]2C(C)C)C[C@H]1C(C)C [TPI 2509-39, (R)-1-((R)-1-((S)-2-(((R)-2-imino-5-isopropylimidazolidin-1-yl)methyl)pyrrolidin-1-yl)-3-phenylpropan-2-yl)-4-isopropyl-3-(4-methylpentyl)imidazolidin-2-imine]			1600 ± 460	10.2 ± 6.57	A (A: <50%)	mMC4R Activity @ 10 μM (relative activity, percent) (mMC4R): 21%
CC(C)CCCN1C(=N)N([C@H](CC2CCCCC2)CN2CCC[C@H]2CN2C(=N)NC[C@H]2C(C)C)C[C@H]1[C@@H](C)O [TPI 2509-24, (R)-1-((S)-1-((R)-1-cyclohexyl-3-((S)-2-(((R)-2-imino-5-isopropylimidazolidin-1-yl)methyl)pyrrolidin-1-yl)propan-2-yl)-2-imino-3-(4-methylpentyl)imidazolidin-4-yl)ethanol]			740 ± 270	0.7 ± 0.08		EC50 (mMC3R): 5.2 ± 1.54 µM
CCC[C@@H]1CN([C@H](Cc2ccccc2)CN2CCC[C@H]2CN2C(=N)NC[C@H]2CC(C)C)C(=N)N1CCCC(C)C [TPI 2509-18, (R)-1-((R)-1-((S)-2-(((R)-2-imino-5-isobutylimidazolidin-1-yl)methyl)pyrrolidin-1-yl)-3-phenylpropan-2-yl)-3-(4-methylpentyl)-4-propylimidazolidin-2-imine]			2180 ± 625		B (B: >51%)	
